Assay results published in US20210347813A1, “COMPOUNDS WITH HIV MATURATION INHIBITORY ACTIVITY” (priority 2018, published 2021).

What was measured:
[1] = Rat PK after single intramuscular (IM) administration of prodrugs, parent MI #1 measured in plasma; format: in vivo; parameters: unit not given here; conditions: male SD rats, IM 20 mg/kg
Excerpt: FIG. 2 is a concentration vs time curve of the plasma concentrations of parent MI #1 following a single Intramuscular (IM) administration of the Prodrugs and parent MI #1 to male SD rats. […] Additional pharmacokinetic data collected from the same experiments summarized in FIG. 2 is contained in the table below.
Animal strain: Sprague Dawley (SD) rat, purchased from Shanghai SLAC Laboratory Animal Co., Ltd. Sex: male; Age: 6-8 weeks; BW: 200-250 g, N=30 rats (N=3 per prodrug); Food status: Free access to food and water for the entire in-life phase.
Dose: 20 mg/kg (2 mL/kg, 10 mg/mL), IM injection; Formulation: 1% Kolliphor P188+4.5% Mannitol+94.5% Milli-Q Water;
N=3 rats/time point for each compound via IM administration
Sampling at 0.5, 1, 3, 5 and 7 hr, 1, 2, 3, 4, 5, 6 and 7 days post dose then 2×/week for a total of 8 weeks, 12*8 time points, serial bleeding for plasma only.
* Weekly interim analysis of the plasma samples (12 time points) to get an early read on the PK of the construct Blood collection and processing: The animal was restrained manually and approximately 150 μL blood per time point was collected in tubes containing K2EDTA anticoagulant. The sample was centrifuged at 2200 g for 10 min at 2-8° C. for plasma. The plasma samples were stored immediately at −70° C.
LC-MS/MS method was developed to quantitate both prodrugs and parent in plasma. The samples were analyzed in duplicate. Two sets of standard curves and three levels of QCs were run in each plate. Both the standards and QCs were run in duplicate.
WinNonlin V 6.4 statistics software (Pharsight Corporation, California, USA) was used to generate pharmacokinetics parameters (Tmax, Cmax, T1/2, AUC, MRT etc).

HIV = conditions: cited from earlier work
[2] = Mouse PK after subcutaneous (SQ) suspension doses, MI #3 measured in plasma; format: in vivo; conditions: male CD-1 mice, SQ 20 mg/kg suspension, MI Parent #3 measured in plasma
Method: FIG. 1 is a graph of concentration vs. time from plasma of MI #3 in ng/mL vs time in hours following subcutaneous (SQ) doses of MI3 # or the prodrugs from Examples 3, 4, and 5 as suspensions in 1% Kolliphor P 188/2% PEG 3350/3.5% Mannitol/93.5% water at 20 mg/kg to male CD-1 mice. […] Exposure of Parent MI #3 decreased 23-fold, 16-fold, and 3-fold after administration of Example 3, 4 and 5, respectively. The presence of the prodrugs was not observed in plasma. Although the exposure is lower than when dosed with parent itself, the half-life of Parent MI #3 is longer after administration of all three prodrugs showing the potential to be useful for less frequent dosing.
Subcutaneous (SQ) doses of each of the compounds from Examples 3, 4, and 5 as suspensions (Dose conc. 4 mg/mL, Dose volume 5 mL/kg) in 1% Kolliphor P 188/2% PEG 3350/3.5% Mannitol/93.5% water at 20 mg/kg to 3 male CD-1 mice (Cr1:CD1 (ICR)) Charles River Laboratories, 25-30gs at dose initiation, age as appropriate for weight. The concentration of Parent MI #3 and prodrugs were measured in the plasma of animals of all three groups at time points of 0.5, 1, 3, 5, 7, 24, 48, 72, 96, 120, 144, and 168 hours. The collection conditions were K2EDTA and the volume/timepoint was 30 μL. The presence of the prodrugs was not observed in plasma for any group.
LC-MS/MS methods were developed to quantitate both prodrugs and parent in plasma. The samples were analyzed in duplicate. Two sets of standard curves and three levels of QCs were run in each plate. Both the standards and QCs were run in duplicate. The table below is a summary of the protocols and guidance that was supplied to the scientists who carried out the experiments.

[3] = MI Parent #3 mouse PK, IV solution; format: in vivo; conditions: dose 1 (printed mg)
[4] = Single dose mouse PK study, oral dose of prodrug or parent, parent MI #3 measured; format: in vivo; conditions: male CD1 mice, PO 5 mg/kg
Method: A single dose mouse PK study was conducted following an oral dose of the prodrug that was prepared as Example 1, being dosed and measuring parent maturation inhibitor (MI) #3, and compared to PK parameters with Parent MI #3 being dosed in male CD1 mice. In the current study, the formulation for parent MI #3 was 0.5% Methocel A4M:0.1% Tween 80:99.4% water. For the prodrug of Example 1, the formulation was 2% Dimethylacetamide:10% ethanol: 87.5% PEG 400:0.5% Tween 80.
Following oral administration of the prodrug, all prodrug concentrations at all timepoints were BLQ. As shown in the table below the exposure of the parent MI #3 obtained from dosing the prodrug was higher than that seen with dosing a crystalline suspension of the parent MI #3.

In the case of `C=C(C)[C@@H]1CC[C@]2(NCCN3CCS(=O)(=O)CC3)CC[C@]3(C)[C@H](CC[C@@H]4[C@@]5(C)CC=C(C6=CC[C@@](CF)(C(=O)OCOC(=O)CCCCC)CC6)C(C)(C)[C@@H]5CC[C@]43C)[C@@H]12` [Example 18, (Hexanoyloxy)methyl (R)-4-((1R,3aS,5aR,5bR,7aR,11aS,11bR,13aR,13bR)-3a-((2-(1,1-dioxidothiomorpholino)ethyl)amino)-5a,5b,8,8,11a-pentamethyl-1-(prop-1-en-2-yl)-2,3,3a,4,5,5a,5b,6,7,7a,8,11,11a,11b,12,13,13a,13b-octadecahydro-1H-cyclopenta[a]chrysen-9-yl)-1-(fluoromethyl)cyclohex-3-ene-1-carboxylate], the “AUCINF (day)” value [1] was 2100.
For `C=C(C)[C@@H]1CC[C@]2(C(=O)O)CC[C@]3(C)[C@H](CC[C@@H]4[C@@]5(C)CC[C@H](OC(=O)CC(C)(C)C(=O)O)C(C)(C)[C@@H]5CC[C@]43C)[C@@H]12` [Bevirimat], the “reduction of HIV viral load (mean)” value (HIV; patients with trough levels >=20 μg/mL and no key baseline Gag polymorphisms at Q369, V370 or T371) is given as 1.3 log10/mL and the “viral load reduction vs patients without Gag polymorphisms” value (HIV; users with Gag polymorphisms at Q369, V370 or T371) is given as “significantly lower load reductions”.
For `C=C(C)[C@@H]1CC[C@]2(NCCN3CCS(=O)(=O)CC3)CC[C@]3(C)[C@H](CC[C@@H]4[C@@]5(C)CC=C(C6=CC[C@@](CF)(C(=O)OCOC(=O)CCCCCCC)CC6)C(C)(C)[C@@H]5CC[C@]43C)[C@@H]12` [Example 19, (Octanoyloxy)methyl (R)-4-((1R,3aS,5aR,5bR,7aR,11aS,11bR,13aR,13bR)-3a-((2-(1,1-dioxidothiomorpholino)ethyl)amino)-5a,5b,8,8,11a-pentamethyl-1-(prop-1-en-2-yl)-2,3,3a,4,5,5a,5b,6,7,7a,8,11,11a,11b,12,13,13a,13b-octadecahydro-1H-cyclopenta[a]chrysen-9-yl)-1-(fluoromethyl)cyclohex-3-ene-1-carboxylate], the “AUCINF (day)” value [1] was 1393.
For `C=C(C)[C@@H]1CC[C@]2(NCC[C@]3(O)CC[C@@H](S(C)(=O)=O)CC3)CC[C@]3(C)[C@H](CC[C@@H]4[C@@]5(C)CC=C(C6=CC[C@@](COc7ncccc7C#N)(C(=O)O)CC6)C(C)(C)[C@@H]5CC[C@]43C)[C@@H]12` [Parent MI #3, (S)-1-(((3-cyanopyridin-2-yl)oxy)methyl)-4-((1R,3aS,5aR,5bR,7aR,11aS,11bR,13aR,13bR)-3a-((2-((1s,4R)-1-hydroxy-4-(methylsulfonyl)cyclohexyl)ethyl)amino)-5a,5b,8,8,11a-pentamethyl-1-(prop-1-en-2-yl)-2,3,3a,4,5,5a,5b,6,7,7a,8,11,11a,11b,12,13,13a,13b-octadecahydro-1H-cyclopenta[a]chrysen-9-yl)cyclohex-3-enecarboxylic acid], the “%AUCextra” value [2] was 12.3%, the AUClast [2] was 449.442 µg·h/mL and the AUCtot [2] was 515.257 µg·h/mL. For the same compound, the Bioavailability [2] was 35 % F, the Cmax [2] was 6.563 µg/mL and the “t(1/2)” value [2] was 58.3 h. For the same compound, the “%AUCextra” value [3] was 24.8%, the AUClast [3] was 64.197 µg·h/mL and the AUCtot [3] was 87.808 µg·h/mL. For the same compound, the Clearance [3] was 0.012 L/h/kg, the MRT [3] was 22.2 h and the Vss [3] was 0.25 L/kg. The “t(1/2)” value [3] was 16.3 h, the AUC0-24h norm [4] was 3.7 μg/mL *h/dose and the AUC0-last [4] was 18 µg·h/mL. For the same compound, the Bioavailability [4] was 5.0 % F, the C24 [4] was 0.03 µg/mL and the Cmax [4] was 1.3 µg/mL. For the same compound, the Tmax [4] was 4.7 h.
With `C=C(C)[C@@H]1CC[C@]2(NCCN3CCS(=O)(=O)CC3)CC[C@]3(C)[C@H](CC[C@@H]4[C@@]5(C)CC=C(C6=CC[C@@](CF)(C(=O)OCOC(=O)C(C)C)CC6)C(C)(C)[C@@H]5CC[C@]43C)[C@@H]12` [Example 21, (Isobutyryloxy)methyl (R)-4-((1R,3aS,5aR,5bR,7aR,11aS,11bR,13aR,13bR)-3a-((2-(1,1-dioxidothiomorpholino)ethyl)amino)-5a,5b,8,8,11a-pentamethyl-1-(prop-1-en-2-yl)-2,3,3a,4,5,5a,5b,6,7,7a,8,11,11a,11b,12,13,13a,13b-octadecahydro-1H-cyclopenta[a]chrysen-9-yl)-1-(fluoromethyl)cyclohex-3-ene-1-carboxylate] the “AUCINF (day)” value [1] was 1682.
